Assays:
[1] = molecular target: T1, Calf skin collagen Type I (Bos taurus, UniProt P02453+P02465); experiment: 3DG-induced collagen crosslinking, CNBr digestion and SDS-PAGE; assay type: biochemical; settings: 37° C., 24 hours
T1 construct: Calf skin collagen Type I (1.3 mg; Sigma); purchased Sigma; host or cells: calf skin
Description: Collagen type I was treated with 3DG in the presence or absence of arginine. The samples were subjected to cyanogen bromide (CNBr) digestion, electrophoresed on a 16.5% SDS Tris-tricine gel, and then the gels were processed using silver stain techniques to visualize the proteins. Lane 1 contains molecular weight marker standards. Lanes 2 and 5 contain 10 and 20 μl of the collagen mixture following CNBr digestion. Lanes 3 and 6 contain the collagen mixture treated with 3DG and then digested with CNBr, and loaded at 10 and 20 μl, respectively. Lanes 4 and 7 contain the mixture of collagen incubated with 5 mM 3DG and 10 mM arginine and then digested with CNBr, and loaded at 10 and 20 μl, respectively.
Collagen I was incubated in the presence or absence of 3DG in vitro. Calf skin collagen Type I (1.3 mg; Sigma) was incubated in 20 mM Na-phosphate buffer, pH 7.25, either alone, with 5 mM 3DG, or with 5 mM 3DG plus 10 mM arginine, in a total volume of 1 ml at 37° C. for 24 hours and then frozen and lyophilized. The residue was dissolved in 0.5 ml of 70% formic acid and cyanogen bromide was added (20:1, w/w). This solution was incubated at 30° C. for 18 hours. […] The extent of collagen crosslinking was determined by applying equal volumes of sample and analyzing by SDS-PAGE electrophoresis (16.5% Tris-tricine gel), as determined by the effects of 3DG on the migration of collagen.

[2] = set-up: species or system human; settings: in vivo
Description: 260 g of casein, 120 g of glucose and 720 ml of water were mixed to give a homogeneous mixture. This mixture was transferred to a metal plate and heated at 65° C. for 68 hours. The resulting cake was then pulverized to a coarse powder.
Volunteers spent two days on a fructoselysine-free diet and then consumed 22.5 g of the food product prepared as described herein, thus effectively receiving a 2 gram dose of fructoselysine. Urine was collected at 2 hour intervals for 14 hours and a final collection was made at 24 hours.
FL was measured by HPLC with a Waters 996 diode Array using a Waters C18 Free Amino Acid column at 46° C. and a gradient elution system of acetonitrile-methyl alcohol-water (45:15:40) into acetonitrile-sodium acetate-water (6:2:92) at 1 ml/min. Quantitation employed an internal standard of meglumine.
3DF was measured by HPLC after deionization of the sample. Analyses were performed on a Dionex DX-500 HPLC system employing a PA1 column (Dionex) and eluting with 32 mM sodium hydroxide at 1 ml/min. Quantitation was performed from standard curves obtained daily with synthetic 3DF.
3DG was measured by GC-MS after deionization of the sample. 3DG was derivatized with a 10-fold excess of diaminonaphthalene in PBS. […] Quantitation of 3DG employed selected ion monitoring using an internal standard of U-13C-3DG.

mouse mesangial cells = experiment: Type IV collagen production in kidney cells in vitro; assay type: cell-based
Description: Type IV collagen production was measured in mouse mesangial cells. Controls (grown with […]) produced 300 ng of Type IV collagen per 10,000 cells, whereas fructoselysine treated cells (5 or 10 mM fructoselysine with 10 mM glucose) produced 560 and 1100 ng/10,000 cells.

[3] = system: kinase activity in the kidney cortex; experiment: Radioactive assay of FL3P production from FL and ATP; assay type: biochemical, pig; settings: 10 mM FL, 10 mM γ33P-ATP, 30 minutes at 37° C., pH 7.5
Description: A 3 g sample of fresh pig kidney cortex was homogenized in 9 ml of 50 mM Tris.HCl containing 150 mM KCl, 5 mM DTT, 15 mM MgCl2, pH 7.5. This was centrifuged at 10,000 g for 30 minutes, and then the supernatant was centrifuged at 100,000 g for 60 minutes. Ammonium sulfate was added to 60% saturation. After 1 hour at 4° C. the precipitate was collected by centrifugation and dissolved in 5 ml. of original buffer. A 2 ml aliquot of this solution was incubated with 10 mM ATP and 10 mM of FL (prepared as in Example 1, above) for 2 hours at 37° C. The reaction was quenched with 300 μl of perchloric acid, centrifuged to remove protein, and desalted on a column of Sephadex G 10 (5×10 cm). ^31P NMR analysis of the reaction mixture detected formation of FL3P.
Based on the proof of kinase activity thus obtained, a radioactive assay was developed. This assay was designed to take advantage of the binding to Dow-50 cation exchange resin by FL3P. This characteristic of FL3P was discovered during efforts to isolate it. […] A 0.5 ml volume of supernatant was pipetted into 10 ml of Ecoscint A and counted. […] The relationship between rates of FL3P production and enzyme concentration was determined using triplicate determinations with 1, 2, and 4 mg of protein for 30 minutes at 37° C. Blanks run concurrently without FL were subtracted and the data recorded. […]

amadorase = experiment: Amadorase-dependent production of 3DG in vitro; assay type: biochemical; settings: FL 2.6 mM, after 24 hours
3DG = settings: disclosed in WO 98/33492; cited from earlier work
3-deoxyglucosone = experiment: Reduction of urinary and plasma 3-deoxyglucosone in rats after intraperitoneal injection; assay type: in vivo; settings: 10 μmols intraperitoneal, plasma at end of three hours vs before
Description: Urine was collected from six rats for three hours. A plasma sample was also obtained. The animals were then given 10 μmols of either sorbitollysine, mannitollysine, or galactitollysine by intraperitoneal injection. Urine was collected for another three hours, and a plasma sample obtained at the end of the three hours.
a. 3-deoxyglucosone was measured in the samples, as described in Example 5, below, and variable volumes were normalized to creatinine. The average reduction of urinary 3-deoxyglucosone was 50% by sorbitollysine, 35% by mannitollysine and 35% by galactitollysine. Plasma 3-deoxyglucosone was reduced 40% by sorbitollysine, 58% by mannitollysine and 50% by galactitollysine.
Three rats were treated as in b), immediately above, except meglumine (100 μmols) was injected intraperitoneally instead of the above-mentioned lysine derivatives. Three hours after the injection the average 3-deoxyglucosone concentrations in the urine were decreased 42%.
3DG was measured by GC-MS after deionization of the sample. 3DG was derivatized with a 10-fold excess of diaminonaphthalene in PBS. Ethyl acetate extraction gave a salt free fraction which was converted to the trimethyl silyl ethers with Tri-Sil (Pierce). Analysis was performed on a Hewlett-Packard 5890 selected ion monitoring GC-MS system. GC was performed on a fused silica capillary column (DB-5.25 mx.25 mm) using the following temperature program: injector port 250° C., initial column temperature 150° C. which is held for 1 minute, then increased to 290° C. at 16° C./minute and held for 15 minutes. Quantitation of 3DG employed selected ion monitoring using an internal standard of U-13C-3DG.

T1 sequence (P02453 162-1217 limits assumed): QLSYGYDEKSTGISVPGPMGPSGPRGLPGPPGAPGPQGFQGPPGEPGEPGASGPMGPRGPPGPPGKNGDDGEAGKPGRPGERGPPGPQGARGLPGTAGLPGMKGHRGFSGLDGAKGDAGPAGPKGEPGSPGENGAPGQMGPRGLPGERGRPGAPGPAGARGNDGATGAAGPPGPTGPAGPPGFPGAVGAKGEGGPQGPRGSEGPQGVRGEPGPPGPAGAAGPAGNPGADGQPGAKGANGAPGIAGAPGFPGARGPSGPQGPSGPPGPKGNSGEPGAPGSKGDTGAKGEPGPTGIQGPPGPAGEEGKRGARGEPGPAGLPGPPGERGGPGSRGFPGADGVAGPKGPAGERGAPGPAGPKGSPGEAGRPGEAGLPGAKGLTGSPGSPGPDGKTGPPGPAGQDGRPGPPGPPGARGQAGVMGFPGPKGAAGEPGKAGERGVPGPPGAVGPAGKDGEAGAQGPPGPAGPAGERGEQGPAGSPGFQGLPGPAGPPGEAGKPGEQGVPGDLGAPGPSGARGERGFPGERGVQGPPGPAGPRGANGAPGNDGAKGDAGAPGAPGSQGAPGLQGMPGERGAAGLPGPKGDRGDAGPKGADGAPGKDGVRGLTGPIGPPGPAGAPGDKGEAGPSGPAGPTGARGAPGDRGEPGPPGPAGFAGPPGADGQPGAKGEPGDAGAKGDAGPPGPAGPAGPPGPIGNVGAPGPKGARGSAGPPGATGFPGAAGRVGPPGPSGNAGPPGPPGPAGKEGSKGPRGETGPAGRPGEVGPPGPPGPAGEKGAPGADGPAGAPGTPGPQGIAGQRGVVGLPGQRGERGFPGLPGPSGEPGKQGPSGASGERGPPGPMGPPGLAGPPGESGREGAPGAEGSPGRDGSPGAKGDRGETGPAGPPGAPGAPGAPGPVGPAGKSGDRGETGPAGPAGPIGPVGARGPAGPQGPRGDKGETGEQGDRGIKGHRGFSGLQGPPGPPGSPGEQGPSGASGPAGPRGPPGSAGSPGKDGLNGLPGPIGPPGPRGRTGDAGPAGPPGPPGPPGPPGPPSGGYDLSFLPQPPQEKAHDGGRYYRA
T1 sequence (P02465 80-1117 limits assumed): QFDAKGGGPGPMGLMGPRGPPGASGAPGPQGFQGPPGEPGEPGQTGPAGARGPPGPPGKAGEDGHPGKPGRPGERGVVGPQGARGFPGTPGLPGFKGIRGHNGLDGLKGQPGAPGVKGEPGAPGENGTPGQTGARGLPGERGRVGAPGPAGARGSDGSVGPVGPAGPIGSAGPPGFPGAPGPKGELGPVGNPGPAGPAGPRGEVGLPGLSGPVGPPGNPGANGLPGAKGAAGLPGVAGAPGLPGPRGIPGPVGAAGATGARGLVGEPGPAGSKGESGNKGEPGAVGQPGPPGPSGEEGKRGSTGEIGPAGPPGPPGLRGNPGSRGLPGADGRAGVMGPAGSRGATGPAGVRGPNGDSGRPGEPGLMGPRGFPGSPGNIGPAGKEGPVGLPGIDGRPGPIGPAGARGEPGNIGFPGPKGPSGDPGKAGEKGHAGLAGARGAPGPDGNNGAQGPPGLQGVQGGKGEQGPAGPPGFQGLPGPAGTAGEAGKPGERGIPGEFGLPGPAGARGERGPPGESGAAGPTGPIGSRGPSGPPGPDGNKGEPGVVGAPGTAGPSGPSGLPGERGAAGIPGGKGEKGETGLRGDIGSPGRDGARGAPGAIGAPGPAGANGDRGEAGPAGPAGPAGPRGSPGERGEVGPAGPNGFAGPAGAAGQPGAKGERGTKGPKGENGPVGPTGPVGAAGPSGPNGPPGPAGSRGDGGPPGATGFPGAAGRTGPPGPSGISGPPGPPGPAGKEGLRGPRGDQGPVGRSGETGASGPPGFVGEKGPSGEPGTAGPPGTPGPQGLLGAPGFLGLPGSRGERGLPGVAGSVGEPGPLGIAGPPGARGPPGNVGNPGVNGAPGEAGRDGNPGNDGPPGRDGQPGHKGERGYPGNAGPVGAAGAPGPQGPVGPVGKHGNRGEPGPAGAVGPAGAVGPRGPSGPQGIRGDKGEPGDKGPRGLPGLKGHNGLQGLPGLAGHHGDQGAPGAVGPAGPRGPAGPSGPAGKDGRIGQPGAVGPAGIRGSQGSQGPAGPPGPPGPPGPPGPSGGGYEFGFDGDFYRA

O=CC(=O)C[C@H](O)[C@H](O)CO [3DG, 3-deoxyglucosone, reference compound]
collagen crosslinking (migration of collagen on gel) ([1]; collagen I with 5 mM 3DG): migrate as if it had a higher molecular weight

NC(CCCCNCC(=O)C(O)C(O)C(O)CO)C(=O)O (stereo not drawn) [FL, 1-deoxy-1-(ε-aminolysine)-fructose]
time of peak urinary 3DF excretion after the bolus [2]: about 4 hours | Type IV collagen produced (mouse mesangial cells; 5 mM fructoselysine with 10 mM glucose): 560 ng/10,000 cells | Type IV collagen produced (mouse mesangial cells; 10 mM fructoselysine with 10 mM glucose): 1100 ng/10,000 cells | approximate FL3P synthesis rate [3]: ~20 nmols/hr/mg protein | 3DG (amadorase; Reaction 1: Amadorase +, ATP +): 1.58 mM | FL3P (amadorase; Reaction 1: Amadorase +, ATP +): 0.2 mM | 3DG (amadorase; Reaction 2: Amadorase +, ATP −): 0.08 mM | FL3P (amadorase; Reaction 2: Amadorase +, ATP −): 0 mM | 3DG (amadorase; Reaction 3: Amadorase −, ATP +): 0.09 mM | FL3P (amadorase; Reaction 3: Amadorase −, ATP +): 0 mM | 3DG (amadorase; Reaction 4: Amadorase −, ATP −): 0.08 mM | FL3P (amadorase; Reaction 4: Amadorase −, ATP −): 0 mM

N=C(N)NCCC[C@H](N)C(=O)O [arginine]
inhibition of 3DG induced collagen crosslinking (high molecular weight bands on gel) ([1]; collagen I with 5 mM 3DG plus 10 mM arginine): fewer high molecular bands

N[C@@H](CCCCNC[C@H](O)[C@@H](O)[C@@H](O)[C@H](O)CO)C(=O)O [galactitollysine]
urinary or plasma 3DG (3DG): can be reduced | Plasma 3-deoxyglucosone reduced (3-deoxyglucosone): 50%

N[C@@H](CCCCNC[C@@H](O)[C@@H](O)[C@H](O)[C@H](O)CO)C(=O)O [mannitollysine]
urinary or plasma 3DG (3DG): can be reduced | Plasma 3-deoxyglucosone reduced (3-deoxyglucosone): 58%

CNC[C@H](O)[C@@H](O)[C@H](O)[C@H](O)CO [meglumine, reference compound]
urinary or plasma 3DG (3DG): can be reduced

N[C@@H](CCCCNC[C@H](O)[C@@H](O)[C@H](O)[C@H](O)CO)C(=O)O [sorbitollysine]
urinary or plasma 3DG (3DG): can be reduced | Plasma 3-deoxyglucosone reduced (3-deoxyglucosone): 40%

Source: patent US20070021357A1, “Treatment of inflammatory conditions” (Dynamis Therapeutics, Inc., priority 2005, published 2007)
